pIC50: −log10 of the molar value. Activity calls are given as the source filed them. The rule behind the calls is not given here.
Tests used:
[1] = target: DNA topoisomerase 2-alpha (Homo sapiens) (UniProt P11388); assay: Inhibition of recombinant Top2 (unknown origin) assessed as inhibition of relaxation of supercoiled pBR322 plasmid DNA at 50 uM incubated for 15 mins by ethidium bromide staining based agarose gel electrophoresis analysis
[2] = test system: A549; assay: Antiproliferative activity against human A549 cells assessed as cell growth inhibition incubated for 8 hrs by CCK8 assay; assay type: functional, cell-based; conditions: A549, 8 h
[3] = test system: HCT-116; assay: Antiproliferative activity against human HCT-116 cells assessed as cell growth inhibition incubated for 8 hrs by CCK8 assay; assay type: functional, cell-based; conditions: HCT-116, 8 h
[4] = test system: HepG2; assay: Antiproliferative activity against human HepG2 cells assessed as cell growth inhibition incubated for 8 hrs by CCK8 assay; assay type: functional, cell-based; conditions: HepG2, 8 h
[5] = test system: K562; assay: Antiproliferative activity against human K562 cells assessed as cell growth inhibition incubated for 8 hrs by CCK8 assay; assay type: functional, cell-based; conditions: K562, 8 h
[6] = test system: HEL; assay: Antiproliferative activity against HEL cells assessed as cell growth inhibition incubated for 8 hrs by CCK8 assay; assay type: functional, cell-based; conditions: Homo sapiens
[7] = target: T1, DNA topoisomerase 1 (Homo sapiens) (UniProt P11387); assay: Inhibition of recombinant Top1 (unknown origin) assessed as inhibition of relaxation of supercoiled pBR322 plasmid DNA at 50 uM incubated for 15 mins by ethidium bromide staining based agarose gel electrophoresis analysis
T1 sequence (whole entry): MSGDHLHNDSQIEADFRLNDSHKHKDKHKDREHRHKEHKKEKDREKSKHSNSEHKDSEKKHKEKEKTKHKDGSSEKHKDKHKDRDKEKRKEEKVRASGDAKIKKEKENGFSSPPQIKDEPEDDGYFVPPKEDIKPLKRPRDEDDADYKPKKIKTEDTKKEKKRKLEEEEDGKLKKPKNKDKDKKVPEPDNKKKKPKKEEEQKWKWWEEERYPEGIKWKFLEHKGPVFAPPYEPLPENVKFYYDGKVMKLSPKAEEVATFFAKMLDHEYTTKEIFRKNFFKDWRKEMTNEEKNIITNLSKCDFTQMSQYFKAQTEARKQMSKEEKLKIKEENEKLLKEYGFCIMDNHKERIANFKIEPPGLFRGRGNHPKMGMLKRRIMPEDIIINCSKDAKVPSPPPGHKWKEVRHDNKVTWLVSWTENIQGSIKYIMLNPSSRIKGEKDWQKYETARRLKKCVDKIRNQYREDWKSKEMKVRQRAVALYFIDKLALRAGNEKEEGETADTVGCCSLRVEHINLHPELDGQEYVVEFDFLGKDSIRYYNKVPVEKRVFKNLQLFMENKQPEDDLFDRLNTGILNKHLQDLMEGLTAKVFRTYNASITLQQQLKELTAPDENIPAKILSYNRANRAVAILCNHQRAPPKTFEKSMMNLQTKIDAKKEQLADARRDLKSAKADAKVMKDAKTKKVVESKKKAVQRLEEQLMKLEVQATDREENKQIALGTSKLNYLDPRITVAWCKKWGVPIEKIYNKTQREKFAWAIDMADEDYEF

[8] = target: Histone deacetylase 3 (Homo sapiens, UniProt O15379); assay: Inhibition of recombinant His-tagged human HDAC3 expressed in baculovirus infected insect cells using Ac-Leu-Gly-Lys(Ac)-AMC as substrate preincubated for 5 mins followed by substrate addition and further incubated for 30 mins by fluorescence based microtiter plate reader assay
Sequence of Histone deacetylase 3 (O15379 whole entry): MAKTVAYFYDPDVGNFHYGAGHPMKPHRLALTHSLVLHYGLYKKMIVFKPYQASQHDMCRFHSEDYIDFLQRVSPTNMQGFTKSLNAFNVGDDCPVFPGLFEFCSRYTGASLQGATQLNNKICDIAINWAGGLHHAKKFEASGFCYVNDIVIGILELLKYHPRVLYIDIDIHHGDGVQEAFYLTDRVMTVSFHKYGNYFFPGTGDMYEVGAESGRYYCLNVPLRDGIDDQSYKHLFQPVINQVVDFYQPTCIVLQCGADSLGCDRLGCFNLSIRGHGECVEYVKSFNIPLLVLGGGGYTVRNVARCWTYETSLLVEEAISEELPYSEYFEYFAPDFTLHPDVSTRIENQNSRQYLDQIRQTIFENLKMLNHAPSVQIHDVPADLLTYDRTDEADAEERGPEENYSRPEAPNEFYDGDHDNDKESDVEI

[9] = target: T2, Histone deacetylase 8 (Homo sapiens, UniProt Q9BY41); assay: Inhibition of full-length recombinant C-terminal His-tagged human HDAC8 expressed in baculovirus infected Sf9 insect cells using Ac-Leu-Gly-Lys(Tfa)-AMC as substrate preincubated for 5 mins followed by substrate addition and further incubated for 30 mins by fluorescence based microtiter plate reader assay
T2 sequence (Q9BY41 whole entry): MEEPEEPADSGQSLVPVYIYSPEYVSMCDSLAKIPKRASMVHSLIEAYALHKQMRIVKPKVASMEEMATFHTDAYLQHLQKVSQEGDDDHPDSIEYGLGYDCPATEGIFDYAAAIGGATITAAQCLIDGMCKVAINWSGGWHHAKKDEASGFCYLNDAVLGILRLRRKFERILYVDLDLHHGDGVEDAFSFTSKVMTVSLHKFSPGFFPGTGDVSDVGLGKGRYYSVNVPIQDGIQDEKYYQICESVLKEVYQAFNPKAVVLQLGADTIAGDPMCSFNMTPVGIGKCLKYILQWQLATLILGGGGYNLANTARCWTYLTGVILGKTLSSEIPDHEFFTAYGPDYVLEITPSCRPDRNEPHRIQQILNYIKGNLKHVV

[10] = target: T3, Histone deacetylase 2 (Homo sapiens, UniProt Q92769); assay: Inhibition of HDAC2 in HEL cells assessed as increase in acetyl-H4 levels at 20 to 100 nM incubated for 24 hrs by western blot analysis; assay type: cell-based; conditions: dose 20-100 nM
T3 sequence (Q92769 whole entry): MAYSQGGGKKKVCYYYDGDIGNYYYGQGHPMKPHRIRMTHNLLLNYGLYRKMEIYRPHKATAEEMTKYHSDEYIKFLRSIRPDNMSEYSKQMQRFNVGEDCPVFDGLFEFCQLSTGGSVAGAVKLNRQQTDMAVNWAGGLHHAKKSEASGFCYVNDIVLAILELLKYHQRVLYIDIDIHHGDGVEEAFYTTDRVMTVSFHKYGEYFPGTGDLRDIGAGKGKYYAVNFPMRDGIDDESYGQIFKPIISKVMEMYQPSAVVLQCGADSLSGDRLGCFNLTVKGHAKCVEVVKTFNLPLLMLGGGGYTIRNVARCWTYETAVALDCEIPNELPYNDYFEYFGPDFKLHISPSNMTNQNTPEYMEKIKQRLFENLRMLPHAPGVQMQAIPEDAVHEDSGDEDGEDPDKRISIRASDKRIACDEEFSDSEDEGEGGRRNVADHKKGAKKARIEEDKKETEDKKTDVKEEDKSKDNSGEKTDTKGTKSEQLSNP

[11] = test system: HEL; assay: Induction of apoptosis in HEL cells assessed as apoptotic cells at 0.5 uM incubated for 48 hrs by annexin V-FITC/PI staining based flow cytometry (reference value: 4.23%); assay type: functional, Homo sapiens
[12] = test system: HEL; assay: Induction of cell cycle arrest in HEL cells assessed as change in S-phase ratio at 0.1 uM incubated for 48 hrs by PI staining based flow cytometry relative to control; assay type: functional, Homo sapiens
[13] = Metabolic stability in ICR mouse liver microsome assessed as clearance; assay type: ADME; conditions: microsomes
[14] = test system: HEL; assay: Antitumor activity against HEL cells xenografted in BALB/C mouse assessed as tumor growth inhibition at 5 mg/kg, po qd for 14 days consecutively by caliper method relative to control; assay type: functional, Homo sapiens; conditions: 336 h, time 14 day, read-out: TGI
[15] = test system: HEL; assay: Antitumor activity against HEL cells xenografted in BALB/C mouse assessed as T/C value at 5 mg/kg, po qd for 14 days consecutively by caliper method relative to control; assay type: functional, Homo sapiens; conditions: time 14 day
[16] = test system: HEL; assay: Antitumor activity against HEL cells xenografted in BALB/C mouse assessed as tumor growth inhibition at 10 mg/kg, po qd for 14 days consecutively by caliper method relative to control; assay type: functional, Homo sapiens; conditions: 336 h, time 14 day, read-out: TGI
[17] = test system: HEL; assay: Antitumor activity against HEL cells xenografted in BALB/C mouse assessed as T/C value at 10 mg/kg, po qd for 14 days consecutively by caliper method relative to control; assay type: functional, Homo sapiens; conditions: time 14 day
[18] = Toxicity in BALB/C mouse xenografted with HEL cells assessed as change in body weight at 5 to 10 mg/kg, po qd for 14 days consecutively; assay type: organism-based; conditions: in vivo, 336 h, dose 5-10 mg/kg, time 14 day
[19] = target: Histone deacetylase 1 (Homo sapiens, UniProt Q13547); assay: In vivo inhibition of HDAC1 in HEL cells xenografted in BALB/C mouse assessed as upregulation of acetyl-H3 levels at 5 to 10 mg/kg by immunohistochemical staining method; assay type: functional, organism-based; conditions: dose 5-10 mg/kg
Sequence of Histone deacetylase 1 (Q13547 whole entry): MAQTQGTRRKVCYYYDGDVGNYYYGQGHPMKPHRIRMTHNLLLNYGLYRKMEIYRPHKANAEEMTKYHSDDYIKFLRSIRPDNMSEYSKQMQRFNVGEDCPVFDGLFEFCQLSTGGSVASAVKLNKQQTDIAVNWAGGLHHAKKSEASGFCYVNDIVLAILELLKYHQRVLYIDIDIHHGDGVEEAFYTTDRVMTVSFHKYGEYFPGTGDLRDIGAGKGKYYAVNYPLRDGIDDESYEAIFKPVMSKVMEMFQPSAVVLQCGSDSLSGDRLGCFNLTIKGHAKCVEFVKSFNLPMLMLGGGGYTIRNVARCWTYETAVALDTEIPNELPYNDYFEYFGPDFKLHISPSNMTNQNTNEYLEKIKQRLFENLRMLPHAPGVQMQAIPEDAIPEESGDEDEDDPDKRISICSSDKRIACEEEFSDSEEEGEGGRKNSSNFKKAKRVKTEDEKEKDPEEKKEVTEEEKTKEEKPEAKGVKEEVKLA

[20] = target: T3, Histone deacetylase 2; assay: In vivo inhibition of HDAC2 in HEL cells xenografted in BALB/C mouse assessed as upregulation of acetyl-H4 levels at 5 to 10 mg/kg by immunohistochemical staining method; assay type: functional, organism-based; conditions: dose 5-10 mg/kg
[21] = target: Histone deacetylase (Homo sapiens) (UniProt Q13547+O15379+Q9UBN7+Q92769+Q9UQL6+Q8WUI4+Q9BY41+Q96DB2+P56524+Q9UKV0+Q969S8); assay: In vivo inhibition of HDAC in HEL cells xenografted in BALB/C mouse assessed as upregulation of caspase-9 levels at 5 to 10 mg/kg by immunohistochemical staining method; assay type: functional, organism-based; conditions: dose 5-10 mg/kg

Sequence of DNA topoisomerase 2-alpha (Homo sapiens) (P11388 whole entry): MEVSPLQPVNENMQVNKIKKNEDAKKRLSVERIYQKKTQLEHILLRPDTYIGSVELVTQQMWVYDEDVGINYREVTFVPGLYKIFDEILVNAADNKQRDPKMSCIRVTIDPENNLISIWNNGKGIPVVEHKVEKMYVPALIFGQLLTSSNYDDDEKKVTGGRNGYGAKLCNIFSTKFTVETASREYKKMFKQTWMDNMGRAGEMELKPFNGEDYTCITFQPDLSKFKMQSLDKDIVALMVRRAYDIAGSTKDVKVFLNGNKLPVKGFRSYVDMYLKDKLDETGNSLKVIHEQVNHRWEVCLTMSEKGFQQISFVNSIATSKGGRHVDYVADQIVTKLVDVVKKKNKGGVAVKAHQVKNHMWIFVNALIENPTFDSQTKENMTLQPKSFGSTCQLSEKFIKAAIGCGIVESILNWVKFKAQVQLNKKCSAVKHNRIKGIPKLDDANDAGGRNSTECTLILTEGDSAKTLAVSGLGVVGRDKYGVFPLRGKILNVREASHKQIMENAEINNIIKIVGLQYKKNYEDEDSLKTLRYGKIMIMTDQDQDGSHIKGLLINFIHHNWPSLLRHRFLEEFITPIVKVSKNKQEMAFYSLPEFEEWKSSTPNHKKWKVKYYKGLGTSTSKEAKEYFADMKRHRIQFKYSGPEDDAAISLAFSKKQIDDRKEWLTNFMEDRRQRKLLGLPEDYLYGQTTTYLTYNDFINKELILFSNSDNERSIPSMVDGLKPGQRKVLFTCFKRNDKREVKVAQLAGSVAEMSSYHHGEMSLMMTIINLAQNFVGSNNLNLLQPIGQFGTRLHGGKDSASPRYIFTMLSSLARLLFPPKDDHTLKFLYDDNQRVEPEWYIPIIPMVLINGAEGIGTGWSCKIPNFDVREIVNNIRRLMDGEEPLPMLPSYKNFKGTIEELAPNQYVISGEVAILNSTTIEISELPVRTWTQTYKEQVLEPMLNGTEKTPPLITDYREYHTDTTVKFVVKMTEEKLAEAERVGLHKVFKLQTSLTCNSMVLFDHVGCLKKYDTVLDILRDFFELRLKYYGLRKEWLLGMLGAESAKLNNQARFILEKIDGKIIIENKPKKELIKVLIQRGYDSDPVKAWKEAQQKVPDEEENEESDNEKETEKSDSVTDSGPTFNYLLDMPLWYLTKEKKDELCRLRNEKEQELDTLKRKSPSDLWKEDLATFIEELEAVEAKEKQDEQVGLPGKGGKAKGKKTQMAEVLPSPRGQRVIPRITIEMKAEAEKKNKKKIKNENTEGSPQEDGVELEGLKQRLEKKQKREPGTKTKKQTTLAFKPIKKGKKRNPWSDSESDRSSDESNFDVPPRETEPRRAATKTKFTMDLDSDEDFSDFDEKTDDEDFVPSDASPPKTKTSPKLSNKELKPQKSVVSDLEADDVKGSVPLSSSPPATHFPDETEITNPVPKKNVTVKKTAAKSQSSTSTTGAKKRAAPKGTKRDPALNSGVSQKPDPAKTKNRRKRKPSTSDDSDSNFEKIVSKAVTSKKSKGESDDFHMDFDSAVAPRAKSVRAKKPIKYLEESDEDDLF

With `CN1c2ccc(F)cc2C(=O)N2CCc3c([nH]c4ccc(OCc5ccc(/C=C/C(=O)NO)cc5)cc34)C21` (stereo unspecified) the inhibition [1] was “Active”, the pIC50 [2] was 6.17 and the pIC50 [3] was 6.68. The pIC50 [4] was 6.59, the pIC50 [5] was 6.46 and the pIC50 [6] was 7.54. For the same molecule, the inhibition [7] was “Active”, the pIC50 [8] was 7.23 and the pIC50 [9] was 5.01. The inhibition [10] was “Active”, the Activity [11] was 76.45% and the Activity [12] was 15.4%. The CLH [13] was 173 mL/min/kg, the inhibition in vivo at 5 mg/kg [14] was 41.4% and the T/C [15] was 54.3%. For the same molecule, the inhibition in vivo at 10 mg/kg [16] was 68.5%, the T/C [17] was 25.5% and the Activity [18] was “Non-Toxic”. For the same molecule, the inhibition [19] was “Active”, the inhibition [20] was “Active” and the inhibition [21] was “Active”.

Source: ChEMBL document CHEMBL5046291, “Evodiamine-Inspired Topoisomerase-Histone Deacetylase Dual Inhibitors: Novel Orally Active Antitumor Agents for Leukemia Therapy” (J Med Chem, 2022)
